Settings in all cases: in vivo, 0.5 h
Data set [1] has as its system Rattus norvegicus. As to the kind of experiment: Biodistribution values represent the mean % id/organ for paired rats 30 min post intravenous injection complex in Heart. It is filed as ADME, organism-based.
Data set [2] concerns Rattus norvegicus. As to the kind of experiment: Biodistribution values represent the mean % id/organ for paired rats 30 min post intravenous injection complex in Fat. It is filed as ADME, organism-based.
Data set [3] has as its system Rattus norvegicus. The data set can be described thus: Biodistribution values represent the mean % id/organ for paired rats 30 min post intravenous injection complex in GI. It is filed as ADME, organism-based.
Data set [4] deals with Rattus norvegicus. The data set can be described thus: Biodistribution values represent the mean % id/organ for paired rats 30 min post intravenous injection complex in Adrenal. It is filed as ADME, organism-based.
Data set [5] has as its system Rattus norvegicus. The data set can be described thus: Biodistribution values represent the mean % id/organ for paired rats 30 min post intravenous injection complex in Lungs. It is filed as ADME, organism-based, Lung.
The test system of data set [6] is Rattus norvegicus. The data set can be described thus: Biodistribution values represent the mean % id/organ for paired rats 30 min post intravenous injection complex in Brain. It is filed as ADME, organism-based.
Data set [7] deals with Rattus norvegicus. As to the kind of experiment: Biodistribution values represent the mean % id/organ for paired rats 30 min post intravenous injection complex in Bone. It is filed as ADME, organism-based, Bone element.
The test system of data set [8] is Rattus norvegicus. The data set can be described thus: Biodistribution values represent the mean % id/organ for paired rats 30 min post intravenous injection complex in Liver. It is filed as ADME, organism-based.
In data set [9] the test system is Rattus norvegicus. As to the kind of experiment: Biodistribution values represent the mean % id/organ for paired rats 30 min post intravenous injection complex in Blood. It is filed as ADME, organism-based.
Data set [10] has as its system Rattus norvegicus. The data set can be described thus: Biodistribution values represent the mean % id/organ for paired rats 30 min post intravenous injection complex in Skin. It is filed as ADME, organism-based.
The test system of data set [11] is Rattus norvegicus. The data set can be described thus: Biodistribution values represent the mean % id/organ for paired rats 30 min post intravenous injection complex in Muscles. It is filed as ADME, organism-based, Muscle tissue.
Data set [12] concerns Rattus norvegicus. As to the kind of experiment: Biodistribution values represent the mean % id/organ for paired rats 30 min post intravenous injection complex in Kidney. It is filed as ADME, organism-based.
Data set [13] deals with Rattus norvegicus. The data set can be described thus: Biodistribution values represent the mean % id/organ for paired rats 30 min post intravenous injection complex in Spleen. It is filed as ADME, organism-based.

Consider “Hexakis-(2-methoxyisobutylisonitrile)Technetium (99mTc-MIBI)”, for which the ID/organ in [1] turned out to be 2.36%; in data set [2], 0.73%; in [3] it was 30.3%; in data set [4], 0.16%; in data set [5], 0.71%; in data set [6] it was 0.05%. Besides, the ID/organ in [7] is 11%; in [8], 10.8%; in [9] it was 0.33%; in [10], 3.95%; in [11] it was 18.5%; in data set [12], 6.26%. This substance also returned an ID/organ in data set [13] of 0.6%.

In the case of “Hexakis[2-(3,4,5-Trimethoxyphenyl)ethaneisonitrile]technetium Complex”, the ID/organ is listed as 0.38% in data set [1]; 0.19% in data set [2]; 24.5% in [3]; 0.12% in data set [4]; 0.43% in data set [5]; 0.01% in data set [6]. Besides, the ID/organ in [7] is recorded as 5.11%; in data set [8], 44.2%; in data set [9], 0.93%; in data set [10] it was 1.33%; in data set [11] it was 4.84%; in [12], 10%. The substance also had an ID/organ in [13] of 1.5%.

As to “Hexakis[2-(3,4-Dimethoxyphenyl)ethaneisonitrile]technetium Complex”, the ID/organ is recorded as 0.07% in data set [1]; 0.14% in [2]; 15.7% in data set [3]; 0.04% in data set [4]; 1.1% in data set [5]; 0.02% in [6]. Besides, the ID/organ in [7] worked out at 2.96%; in data set [8], 77.5%; in data set [9], 3%; in data set [10], 0.82%; in data set [11], 1.77%; in [12] it was 1.26%. For the same substance, in data set [13], the ID/organ amounted to 1.91%.

For the substance “Hexakis[2-(4-Methoxyphenyl)ethaneisonitrile]technetium Complex”, the ID/organ amounted to 0.15% in data set [1]; 0.26% in data set [2]; 1.86% in data set [3]; 0.03% in data set [4]; 3.93% in data set [5]; 0% in data set [6]. For the same substance, the ID/organ in data set [7] was 3.44%; in data set [8], 81.1%; in data set [9] it was 0.79%; in data set [10] it was 0.41%; in [11], 1.99%; in [12], 0.19%. In addition, the ID/organ in [13] came to 2.94%.

In the case of “Hexakis[2-Methoxy-5-nitrobenzeneisonitrile]technetium Complex”, the ID/organ in [1] turned out to be 0.35%; in data set [2], 0.55%; in [3] it was 19.4%; in data set [4] it was 0.04%; in data set [5], 0.51%; in data set [6] it was 0.04%. Moreover, the ID/organ came out at 9.58% in data set [7]; 32.5% in [8]; 14.1% in [9]; 2.88% in data set [10]; 6.82% in data set [11]; 2.74% in [12]. Further, in data set [13], the ID/organ is listed as 1.25%.

For the substance “Hexakis[3,4,5-Trimethoxy-alpha-tolueneisonitrile]technetium Complex”, the ID/organ in [1] is recorded as 0.17%; in [2], 0.17%; in data set [3] it was 65.1%; in data set [4], 0.04%; in [5], 0.61%; in [6], 0.01%. Further, the ID/organ worked out at 2.29% in data set [7]; 39.2% in data set [8]; 0.59% in data set [9]; 0.76% in data set [10]; 3.02% in [11]; 3.83% in data set [12]. This substance gave an ID/organ in [13] of 0.13%.

Regarding “Hexakis[3,4-(Methylenedioxy)-alpha-tolueneisonitrile]technetium Complex”, the ID/organ amounted to 0.15% in [1]; 0.26% in data set [2]; 5.75% in data set [3]; 0.07% in data set [4]; 3.04% in [5]; 0.01% in data set [6]. For the same substance, the ID/organ in data set [7] is given as 4.29%; in data set [8], 73.8%; in [9], 4.19%; in [10] it was 0.6%; in data set [11], 3.9%; in [12], 0.61%. This substance also displayed an ID/organ in data set [13] of 2.78%.

Turning to “Hexakis[3,4-(Methylenedioxy)benzeneisonitrile]technetium Complex”, the ID/organ in data set [1] amounted to 0.03%; in data set [2], 0.08%; in [3], 0.38%; in [4] it was 0.05%; in [5] it was 2.62%; in data set [6], 0.01%. The ID/organ in [7] stood at 4.73%; in data set [8], 91.8%; in [9], 1.45%; in [10] it was 0.19%; in data set [11], 0.47%; in data set [12], 0.12%. Further, in data set [13], the ID/organ amounted to 1.82%.

With “Hexakis[3,4-Dimethoxy-alpha-tolueneisonitrile]technetium Complex”, the ID/organ stood at 0.1% in data set [1]; 0.21% in [2]; 33.5% in [3]; 0.07% in [4]; 1.22% in [5]; 0.02% in [6]. The ID/organ is on record as 4.72% in data set [7]; 44.2% in data set [8]; 3.27% in data set [9]; 1.35% in data set [10]; 2.48% in data set [11]; 2.25% in data set [12]. Moreover, in data set [13], the ID/organ worked out at 0.34%.

“Hexakis[3,4-Dimethoxybenzeneisonitrile]technetium Complex”: the ID/organ in data set [1] is 0.13%; in data set [2], 0.4%; in data set [3], 2.44%; in data set [4] it was 0.07%; in data set [5], 1.89%; in data set [6] it was 0.02%. For the same substance, the ID/organ in data set [7] stood at 4.38%; in data set [8], 87.7%; in data set [9] it was 3.92%; in [10] it was 1.07%; in data set [11], 4.67%; in data set [12], 0.61%. The ID/organ in data set [13] stood at 4.5%.

As to “Hexakis[3,5-Dimethoxy-alpha-tolueneisonitrile]technetium Complex”, the ID/organ in [1] amounted to 0.12%; in [2], 0.2%; in [3], 2.22%; in [4] it was 0.04%; in data set [5], 0.87%; in data set [6], 0.02%. In addition, the ID/organ is given as 3.63% in data set [7]; 75.9% in data set [8]; 5.06% in data set [9]; 0.43% in data set [10]; 1.82% in data set [11]; 0.3% in data set [12]. In data set [13], the ID/organ turned out to be 3.35%.

As for “Hexakis[3,5-Dimethoxybenzeneisonitrile]technetium Complex”, the ID/organ in [1] is 0.03%; in data set [2] it was 0.11%; in data set [3], 3.12%; in data set [4], 0%; in data set [5] it was 1.83%; in data set [6], 0.01%. Moreover, the ID/organ in data set [7] was 1.53%; in data set [8], 92.5%; in data set [9], 0.5%; in data set [10], 0.26%; in data set [11], 0.74%; in data set [12], 0.49%. In data set [13], the ID/organ is listed as 2.25%.

For “Hexakis[3-(hydroxymethyl)benzeneisonitrile]technetium Complex”, the ID/organ was found to be 0.12% in data set [1]; 0.2% in [2]; 13.8% in data set [3]; 0.05% in [4]; 0.63% in [5]; 0.01% in data set [6]. Further, the ID/organ in data set [7] is 3.6%; in data set [8], 62.2%; in data set [9] it was 3.39%; in data set [10], 0.62%; in data set [11], 2.99%; in [12], 2.98%. Besides, in data set [13], the ID/organ was 1.85%.

As for “Hexakis[3-Acetamidobenzeneisonitrile]technetium Complex”, the ID/organ is listed as 0.03% in data set [1]; 0.03% in data set [2]; 2.12% in data set [3]; 0.02% in [4]; 1.45% in [5]; 0.01% in [6]. In addition, the ID/organ is 3.48% in [7]; 86.9% in [8]; 0.87% in data set [9]; 0.17% in data set [10]; 0.53% in data set [11]; 0.38% in data set [12]. The substance further gave an ID/organ in data set [13] of 1.5%.

For the origin of these results see ChEMBL document CHEMBL1128489, “Novel hexakis(areneisonitrile)technetium(I) complexes as radioligands targeted to the multidrug resistance P-glycoprotein” (J Med Chem, 1995).
